Experimental data taken from PMC5218480 (PLoS ONE, 2017).

Tested on: MV-4-11 cells
Experiment: Gene expression microarray analysis (Affymetrix PrimeView) and GSEA
Type: cell-based, human
Parameters: RFU PODN (11730768_x_at) / Fold change /veh PODN (11730768_x_at) / RFU LINC00158 (11744669_a_at) / Fold change /veh LINC00158 (11744669_a_at) / RFU DUSP10 (11751237_a_at) / Fold change /veh DUSP10 (11751237_a_at) / RFU ID3 (11757404_x_at) / Fold change /veh ID3 (11757404_x_at) / RFU PLEKHG5 (11737974_s_at) / Fold change /veh PLEKHG5 (11737974_s_at) / RFU LRRC4B (11730491_at) / Fold change /veh LRRC4B (11730491_at) / RFU GIMAP4 (11747438_a_at) / Fold change /veh GIMAP4 (11747438_a_at) / RFU KRT8 (11758183_x_at) / Fold change /veh KRT8 (11758183_x_at) / RFU CNN1 (11734310_a_at) / Fold change /veh CNN1 (11734310_a_at) / RFU VPS37D (11726825_at) / Fold change /veh VPS37D (11726825_at) / RFU C10orf10 (11716522_x_at) / Fold change /veh C10orf10 (11716522_x_at) / RFU KIR2DL2 /// KIR2DL4 /// KIR2DL5A /// KIR2DL5B /// KIR2DS1 /// KIR2DS2 /// KIR2DS3 /// KIR2DS4 /// KIR3DL3 /// KIR3DL3 /// KIR3DS1 (11738374_at) / Fold change /veh KIR2DL2 /// KIR2DL4 /// KIR2DL5A /// KIR2DL5B /// KIR2DS1 /// KIR2DS2 /// KIR2DS3 /// KIR2DS4 /// KIR3DL3 /// KIR3DL3 /// KIR3DS1 (11738374_at) / RFU C1QL1 (11718748_at) / Fold change /veh C1QL1 (11718748_at) / RFU TMPRSS4 (11747572_a_at) / Fold change /veh TMPRSS4 (11747572_a_at) / RFU HAMP (11756126_x_at) / Fold change /veh HAMP (11756126_x_at) / RFU RNFT2 (11725882_a_at) / Fold change /veh RNFT2 (11725882_a_at) / RFU NR4A2 (11747474_a_at) / Fold change /veh NR4A2 (11747474_a_at) / RFU ABCC12 (11746883_a_at) / Fold change /veh ABCC12 (11746883_a_at) / RFU TMEM136 (11760407_x_at) / Fold change /veh TMEM136 (11760407_x_at) / RFU CLDN22 /// WWC2 (11732394_at) / Fold change /veh CLDN22 /// WWC2 (11732394_at) / RFU HLA-DPB1 (11760878_x_at) / Fold change /veh HLA-DPB1 (11760878_x_at) / RFU SPINT1 (11716480_a_at) / Fold change /veh SPINT1 (11716480_a_at) / RFU GAP43 (11754022_s_at) / Fold change /veh GAP43 (11754022_s_at) / RFU A4GNT (11735810_at) / Fold change /veh A4GNT (11735810_at) / RFU PRB3 (11715151_x_at) / Fold change /veh PRB3 (11715151_x_at) / RFU TUBB4B (11761932_at) / Fold change /veh TUBB4B (11761932_at) / RFU CAPN14 (11732068_a_at) / Fold change /veh CAPN14 (11732068_a_at) / RFU TMCC2 (11721928_a_at) / Fold change /veh TMCC2 (11721928_a_at) / RFU IRGQ (11745062_a_at) / Fold change /veh IRGQ (11745062_a_at) / RFU FAM174B (11720279_a_at) / Fold change /veh FAM174B (11720279_a_at) / RFU TMPRSS4 (11748680_a_at) / Fold change /veh TMPRSS4 (11748680_a_at) / RFU FAM212B (11763350_a_at) / Fold change /veh FAM212B (11763350_a_at) / RFU PLEKHG5 (11743358_a_at) / Fold change /veh PLEKHG5 (11743358_a_at) / RFU ZSCAN30 (11745921_a_at) / Fold change /veh ZSCAN30 (11745921_a_at) / RFU CMKLR1 (11741424_a_at) / Fold change /veh CMKLR1 (11741424_a_at) / RFU LOC101060620 /// MAPK8IP1 (11723275_at) / Fold change /veh LOC101060620 /// MAPK8IP1 (11723275_at) / RFU SPTSSB (11747773_x_at) / Fold change /veh SPTSSB (11747773_x_at) / RFU PRSS12 (11739890_at) / Fold change /veh PRSS12 (11739890_at) / RFU BIN1 (11741810_x_at) / Fold change /veh BIN1 (11741810_x_at) / RFU WNT11 (11732464_a_at) / Fold change /veh WNT11 (11732464_a_at) / RFU C10orf10 (11716521_a_at) / Fold change /veh C10orf10 (11716521_a_at) / RFU C5orf56 (11738089_at) / Fold change /veh C5orf56 (11738089_at) / RFU CYB561 (11721691_x_at) / Fold change /veh CYB561 (11721691_x_at) / RFU ANKRD19P (11752326_a_at) / Fold change /veh ANKRD19P (11752326_a_at) / RFU OR2T12 /// OR2T33 /// OR2T8 (11738714_s_at) / Fold change /veh OR2T12 /// OR2T33 /// OR2T8 (11738714_s_at) / RFU VCAN (11748164_a_at) / Fold change /veh VCAN (11748164_a_at) / RFU JSRP1 (11732532_at) / Fold change /veh JSRP1 (11732532_at) / RFU KRTAP10-11 (11738290_x_at) / Fold change /veh KRTAP10-11 (11738290_x_at) / RFU MYO3A (11730013_a_at) / Fold change /veh MYO3A (11730013_a_at) / RFU EBF3 (11725865_a_at) / Fold change /veh EBF3 (11725865_a_at) / RFU CAMK2N1 (11719241_x_at) / Fold change /veh CAMK2N1 (11719241_x_at) / RFU C5orf56 (11738088_a_at) / Fold change /veh C5orf56 (11738088_a_at) / RFU OLFML3 (11715873_a_at) / Fold change /veh OLFML3 (11715873_a_at) / RFU LOC100653217 /// NTM (11731650_a_at) / Fold change /veh LOC100653217 /// NTM (11731650_a_at) / RFU MAPK11 (11762145_a_at) / Fold change /veh MAPK11 (11762145_a_at) / RFU FIZ1 (11724087_x_at) / Fold change /veh FIZ1 (11724087_x_at) / RFU OASL (11726364_x_at) / Fold change /veh OASL (11726364_x_at) / RFU SOX15 (11748057_x_at) / Fold change /veh SOX15 (11748057_x_at) / RFU CD79A (11719716_a_at) / Fold change /veh CD79A (11719716_a_at) / RFU HIST1H1D (11736915_at) / Fold change /veh HIST1H1D (11736915_at) / RFU CASKIN2 (11723855_a_at) / Fold change /veh CASKIN2 (11723855_a_at) / RFU LOC730098 (11760151_x_at) / Fold change /veh LOC730098 (11760151_x_at) / RFU OR4N2 (11742367_at) / Fold change /veh OR4N2 (11742367_at) / RFU PRRT2 (11749266_a_at) / Fold change /veh PRRT2 (11749266_a_at) / RFU SNX32 (11753110_a_at) / Fold change /veh SNX32 (11753110_a_at) / RFU CDHR5 (11726645_a_at) / Fold change /veh CDHR5 (11726645_a_at) / RFU RCAN1 (11760418_a_at) / Fold change /veh RCAN1 (11760418_a_at) / RFU FAM167A (11723789_a_at) / Fold change /veh FAM167A (11723789_a_at) / RFU FAM26E (11764081_at) / Fold change /veh FAM26E (11764081_at) / RFU ISYNA1 (11749810_s_at) / Fold change /veh ISYNA1 (11749810_s_at) / RFU ACY1 (11761880_at) / Fold change /veh ACY1 (11761880_at) / RFU 11764098_at / Fold change /veh 11764098_at / RFU SAMD14 (11745864_x_at) / Fold change /veh SAMD14 (11745864_x_at) / RFU NPB (11741838_a_at) / Fold change /veh NPB (11741838_a_at) / RFU TMPRSS6 (11731388_a_at) / Fold change /veh TMPRSS6 (11731388_a_at) / RFU KRTAP10-2 (11738614_at) / Fold change /veh KRTAP10-2 (11738614_at) / RFU ARHGAP8 /// PRR5-ARHGAP8 (11727945_x_at) / Fold change /veh ARHGAP8 /// PRR5-ARHGAP8 (11727945_x_at) / RFU KRTAP5-7 /// NADSYN1 (11734609_at) / Fold change /veh KRTAP5-7 /// NADSYN1 (11734609_at) / RFU RASL12 (11751679_a_at) / Fold change /veh RASL12 (11751679_a_at) / RFU CDKN2B (11736163_a_at) / Fold change /veh CDKN2B (11736163_a_at) / RFU PRF1 (11729649_at) / Fold change /veh PRF1 (11729649_at) / RFU, ZNF638 /// ZNF638-IT1 / Fold change vs veh, ZNF638 /// ZNF638-IT1 / RFU, PANK3 / Fold change vs veh, PANK3 / RFU, SH3YL1 / Fold change vs veh, SH3YL1 / RFU, ZEB2 / Fold change vs veh, ZEB2 / RFU, NRIP1 / Fold change vs veh, NRIP1 / RFU, PTTG1IP / Fold change vs veh, PTTG1IP / RFU, CAPN2 / Fold change vs veh, CAPN2 / RFU, MED14 / Fold change vs veh, MED14 / RFU, SNORA58 / Fold change vs veh, SNORA58 / RFU, C1orf63 / Fold change vs veh, C1orf63 / RFU, LRRFIP1 / Fold change vs veh, LRRFIP1 / RFU, NDUFAF7 / Fold change vs veh, NDUFAF7 / RFU, SLC12A2 / Fold change vs veh, SLC12A2 / RFU, IBTK / Fold change vs veh, IBTK / RFU, ESF1 / Fold change vs veh, ESF1 / Fold change vs veh, TMEM50B / RFU, TAOK1 / Fold change vs veh, TAOK1 / RFU, ACBD3 / Fold change vs veh, ACBD3 / RFU, TMA16 / Fold change vs veh, TMA16 / RFU, RWDD3 / Fold change vs veh, RWDD3 / RFU, BCAT1 / Fold change vs veh, BCAT1 / RFU, EDEM3 / Fold change vs veh, EDEM3 / RFU, TMEM33 / Fold change vs veh, TMEM33 / RFU, WDR75 / Fold change vs veh, WDR75 / RFU, AHCTF1 / Fold change vs veh, AHCTF1 / RFU, TFRC / Fold change vs veh, TFRC / RFU, ZDHHC17 / Fold change vs veh, ZDHHC17 / RFU, NOM1 / Fold change vs veh, NOM1 / RFU, ARL8B / Fold change vs veh, ARL8B / RFU, ZBTB11 / Fold change vs veh, ZBTB11 / RFU, TAMM41 / Fold change vs veh, TAMM41 / RFU, KIAA1704 /// LOC100996395 / Fold change vs veh, KIAA1704 /// LOC100996395 / RFU, ING1 / Fold change vs veh, ING1 / RFU, TRMT61B / Fold change vs veh, TRMT61B / RFU, FUBP3 / Fold change vs veh, FUBP3 / RFU, TP53 / Fold change vs veh, TP53 / RFU, TNKS2 / Fold change vs veh, TNKS2 / RFU, ZFP14 / Fold change vs veh, ZFP14 / RFU, ACTR2 / Fold change vs veh, ACTR2 / RFU, PPP3R1 / Fold change vs veh, PPP3R1 / RFU, PIK3R1 / Fold change vs veh, PIK3R1 / RFU, HNRNPA1 / Fold change vs veh, HNRNPA1 / RFU, RNF170 / Fold change vs veh, RNF170 / RFU, ZNF28 / Fold change vs veh, ZNF28 / RFU, RNGTT / Fold change vs veh, RNGTT / RFU, OGT / Fold change vs veh, OGT / RFU, BRD1 / Fold change vs veh, BRD1 / RFU, MARS / Fold change vs veh, MARS / RFU, ZNF655 / Fold change vs veh, ZNF655 / RFU, FAHD1 / Fold change vs veh, FAHD1 / RFU, BDP1 / Fold change vs veh, BDP1 / RFU, LRRCC1 / Fold change vs veh, LRRCC1 / RFU, ARID1A / Fold change vs veh, ARID1A / RFU, ZNF146 / Fold change vs veh, ZNF146 / RFU, ZNF330 / Fold change vs veh, ZNF330 / RFU, GPN3 / Fold change vs veh, GPN3 / RFU, C9orf123 / Fold change vs veh, C9orf123 / RFU, N4BP2L2 / Fold change vs veh, N4BP2L2 / RFU, ARFIP1 / Fold change vs veh, ARFIP1 / RFU, FAM179B / Fold change vs veh, FAM179B / RFU, BCL10 / Fold change vs veh, BCL10 / RFU, UHRF1BP1L / Fold change vs veh, UHRF1BP1L / RFU, BET1 / Fold change vs veh, BET1 / RFU, CNOT2 / Fold change vs veh, CNOT2 / RFU, ZNF268 / Fold change vs veh, ZNF268 / Fold change vs veh, ZNF507 / RFU, DGCR2 / Fold change vs veh, DGCR2 / RFU, WDSUB1 / Fold change vs veh, WDSUB1 / Fold change vs veh, HSP90B1 /// MIR3652 / RFU, ADSS / Fold change vs veh, ADSS / RFU, GK / Fold change vs veh, GK / RFU, ZNF148 / Fold change vs veh, ZNF148 / RFU, TAF9 / Fold change vs veh, TAF9 / RFU, SLC1A5 / Fold change vs veh, SLC1A5 / RFU, SLMO2 / Fold change vs veh, SLMO2 / RFU, ABCC4 / Fold change vs veh, ABCC4 / RFU, LOC101060439 /// RAP1B / Fold change vs veh, LOC101060439 /// RAP1B / RFU, RFX7 / Fold change vs veh, RFX7 / RFU, GTPBP10 / Fold change vs veh, GTPBP10 / RFU, CNEP1R1 / Fold change vs veh, CNEP1R1 / RFU, BIVM-ERCC5 /// ERCC5 / Fold change vs veh, BIVM-ERCC5 /// ERCC5 / RFU, ILF3 / Fold change vs veh, ILF3 / RFU 11762660_at / Fold change /veh 11762660_at / RFU VCAN (11757783_s_at) / Fold change /veh VCAN (11757783_s_at) / RFU DDX43 (11728927_at) / Fold change /veh DDX43 (11728927_at) / RFU KRT8 (11758188_x_at) / Fold change /veh KRT8 (11758188_x_at) / RFU NKD1 (11759106_at) / Fold change /veh NKD1 (11759106_at) / RFU SRD5A1 (11742802_a_at) / Fold change /veh SRD5A1 (11742802_a_at) / RFU TPSAB1 /// TPSB2 (11721975_s_at) / Fold change /veh TPSAB1 /// TPSB2 (11721975_s_at) / RFU GSTM3 (11746129_a_at) / Fold change /veh GSTM3 (11746129_a_at) / RFU IL23R (11737362_x_at) / Fold change /veh IL23R (11737362_x_at) / RFU TMEM51 (11727254_a_at) / Fold change /veh TMEM51 (11727254_a_at) / RFU PIWIL2 (11732686_x_at) / Fold change /veh PIWIL2 (11732686_x_at) / RFU ORM1 (11744905_x_at) / Fold change /veh ORM1 (11744905_x_at) / RFU CCDC152 (11743942_at) / Fold change /veh CCDC152 (11743942_at) / RFU ECM1 (11717891_a_at) / Fold change /veh ECM1 (11717891_a_at) / RFU IL23R (11748794_a_at) / Fold change /veh IL23R (11748794_a_at) / RFU TNFAIP8L3 (11732012_x_at) / Fold change /veh TNFAIP8L3 (11732012_x_at) / RFU MBOAT4 (11741988_at) / Fold change /veh MBOAT4 (11741988_at) / RFU 11764193_at / Fold change /veh 11764193_at / RFU TMEM53 (11763286_at) / Fold change /veh TMEM53 (11763286_at) / RFU MAGEB2 (11727129_at) / Fold change /veh MAGEB2 (11727129_at) / RFU TMEM200A (11744735_a_at) / Fold change /veh TMEM200A (11744735_a_at) / RFU CCDC152 (11751479_a_at) / Fold change /veh CCDC152 (11751479_a_at) / RFU FAM211A (11726209_a_at) / Fold change /veh FAM211A (11726209_a_at) / RFU RGS16 (11746705_a_at) / Fold change /veh RGS16 (11746705_a_at) / RFU VCAN (11755009_s_at) / Fold change /veh VCAN (11755009_s_at) / RFU RHOB (11743442_s_at) / Fold change /veh RHOB (11743442_s_at) / RFU RGS16 (11720943_a_at) / Fold change /veh RGS16 (11720943_a_at) / RFU RGS16 (11720944_at) / Fold change /veh RGS16 (11720944_at) / RFU, VPS4B / Fold change vs veh, VPS4B / RFU, CREB1 / Fold change vs veh, CREB1 / RFU, DNAJC13 / Fold change vs veh, DNAJC13 / RFU, GNAQ / Fold change vs veh, GNAQ / RFU, CDK5R1 / Fold change vs veh, CDK5R1 / RFU, ZRANB3 / Fold change vs veh, ZRANB3 / RFU, CUL4A / Fold change vs veh, CUL4A / RFU, CCNY / Fold change vs veh, CCNY / RFU, UFL1 / Fold change vs veh, UFL1 / RFU, COG3 / Fold change vs veh, COG3 / RFU, DIAPH2 / Fold change vs veh, DIAPH2 / RFU, SKA2 / Fold change vs veh, SKA2 / RFU, AFF3 / Fold change vs veh, AFF3 / RFU, LMF1 / Fold change vs veh, LMF1 / RFU, IPO11 / Fold change vs veh, IPO11 / RFU, DFFB / Fold change vs veh, DFFB / RFU, FOXP1 / Fold change vs veh, FOXP1 / RFU, CARD8 / Fold change vs veh, CARD8 / RFU, STRN3 / Fold change vs veh, STRN3 / RFU, ADK / Fold change vs veh, ADK / RFU, RASSF2 / Fold change vs veh, RASSF2 / RFU, WIPF1 / Fold change vs veh, WIPF1 / RFU, LARP1B / Fold change vs veh, LARP1B / RFU, RASA1 / Fold change vs veh, RASA1 / RFU, RB1 / Fold change vs veh, RB1 / RFU, PPFIA1 / Fold change vs veh, PPFIA1 / RFU, MAT2A / Fold change vs veh, MAT2A / RFU, CCT5 / Fold change vs veh, CCT5 / RFU, WDR92 / Fold change vs veh, WDR92 / RFU, CUX1 / Fold change vs veh, CUX1 / RFU, TTC7A / Fold change vs veh, TTC7A / RFU, TMEM135 / Fold change vs veh, TMEM135 / RFU, DEPTOR / Fold change vs veh, DEPTOR / RFU, CPM / Fold change vs veh, CPM / RFU, DNAJB6 / Fold change vs veh, DNAJB6 / RFU, CACNA2D3 / Fold change vs veh, CACNA2D3 / RFU, DTX4 / Fold change vs veh, DTX4 / RFU, TFCP2 / Fold change vs veh, TFCP2 / RFU, GMCL1 /// GMCL1P1 / Fold change vs veh, GMCL1 /// GMCL1P1 / RFU, AEBP2 / Fold change vs veh, AEBP2 / RFU, SNHG1 /// SNORD22 /// SNORD25 /// SNORD26 /// SNORD27 /// SNORD28 /// SNORD29 /// SNORD31 / Fold change vs veh, SNHG1 /// SNORD22 /// SNORD25 /// SNORD26 /// SNORD27 /// SNORD28 /// SNORD29 /// SNORD31 / Fold change (Aza/veh), C12orf56 (ProbeSet 11735607_a_at) / Fold change (ACY-1035/veh), C12orf56 (ProbeSet 11735607_a_at) / Fold change (Aza/veh), FGFR1OP (ProbeSet 11751329_s_at) / Fold change (ACY-1035/veh), FGFR1OP (ProbeSet 11751329_s_at) / Fold change (Aza/veh), VPS36 (ProbeSet 11739960_a_at) / Fold change (ACY-1035/veh), VPS36 (ProbeSet 11739960_a_at) / RFU SYPL1 (11715823_x_at) / Fold change /veh SYPL1 (11715823_x_at) / RFU IGFBP7 (11715501_s_at) / Fold change /veh IGFBP7 (11715501_s_at) / RFU REEP3 (11722064_at) / Fold change /veh REEP3 (11722064_at) / RFU IGLL1 (11728026_x_at) / Fold change /veh IGLL1 (11728026_x_at): dose or concentration left out as unconfirmed
Details: MV-4-11 cells, 48 hours

Q: Which “RFU NPB (11741838_a_at)” value does the source give for `Nc1ccc(-c2cccs2)cc1NC(=O)c1ccc2c(c1)cc(C1CC1)n2CCN1CCOCC1` [ACY-1035] here?
A: The value was 77.64 RFU.
